Experimental findings from patent US9617240B2 (TEIJIN PHARMA LIMITED, priority 2013, dated 2017) are described below.

For this assay, the target named is T1, oxidase type xanthine oxidase (derived from buttermilk) (Bos taurus, UniProt P80457).
T1 construct: oxidase type xanthine oxidase (derived from buttermilk, supplied by Calbiochem Novabiochem Corp.); purchased Calbiochem Novabiochem Corp; host or cells: buttermilk (natural source)
As to the kind of experiment: Xanthine oxidase inhibitory activity (absorbance change at 290 nm). The class given is biochemical. Particulars: xanthine substrate, 100 mM phosphate buffer, absorbance at 290 nm for 5 minutes; read-out: Inhibitory Activity (50% inhibitory concentration with respect to oxidase type xanthine oxidase). On the procedure:
The xanthine oxidase inhibitory activity was measured for the compounds synthesized according to the above Examples.
After a test compound was dissolved in DMSO (manufactured by Sigma Co.) so that the concentration is 20 mM, the test compound was prepared and used at a desired concentration at the time of use.
The evaluation of the xanthine oxidase inhibitory activity of the compounds of the present invention was conducted by partially modifying the method described in the literature (Method Enzymatic Analysis, 1, 521-522, 1974). The present evaluation is based on the oxidase type xanthine oxidase inhibitory activity evaluation. That is, a xanthine (manufactured by Sigma Co.) solution prepared at 10 mM in advance using a 20 mM sodium hydroxide solution was adjusted to 30 μM using a 100 mM phosphate buffer solution, and 75 μL/well of each solution was added into a 96-well plate. Aliquots (1.5 μL/well) of each test sample, which was diluted with DMSO so that the concentration is 100 times the final concentration, were added into a 96-well plate, and after mixing, the absorbance at 290 nm was measured by a microplate reader SPECTRA MAX Plus 384 (manufactured by Molecular Devices, LLC). Subsequently, oxidase type xanthine oxidase (derived from buttermilk, supplied by Calbiochem Novabiochem Corp.) was prepared at 30.6 mU/mL using a 100 mM phosphate buffer solution and 73.5 μL/well of each solution was added. Immediately after mixing, the change in absorbance at 290 nm was measured for 5 minutes. The enzyme activity when DMSO was used instead of a test compound solution was defined as 100%, the inhibitory rate of the test compounds was calculated and the 50% inhibitory concentration with respect to oxidase type xanthine oxidase was calculated by fitting to the dose-response curve.
Note that the symbols (+, ++, +++) in the table represent inhibitory activity values as shown below.

T1 sequence (P80457 whole entry): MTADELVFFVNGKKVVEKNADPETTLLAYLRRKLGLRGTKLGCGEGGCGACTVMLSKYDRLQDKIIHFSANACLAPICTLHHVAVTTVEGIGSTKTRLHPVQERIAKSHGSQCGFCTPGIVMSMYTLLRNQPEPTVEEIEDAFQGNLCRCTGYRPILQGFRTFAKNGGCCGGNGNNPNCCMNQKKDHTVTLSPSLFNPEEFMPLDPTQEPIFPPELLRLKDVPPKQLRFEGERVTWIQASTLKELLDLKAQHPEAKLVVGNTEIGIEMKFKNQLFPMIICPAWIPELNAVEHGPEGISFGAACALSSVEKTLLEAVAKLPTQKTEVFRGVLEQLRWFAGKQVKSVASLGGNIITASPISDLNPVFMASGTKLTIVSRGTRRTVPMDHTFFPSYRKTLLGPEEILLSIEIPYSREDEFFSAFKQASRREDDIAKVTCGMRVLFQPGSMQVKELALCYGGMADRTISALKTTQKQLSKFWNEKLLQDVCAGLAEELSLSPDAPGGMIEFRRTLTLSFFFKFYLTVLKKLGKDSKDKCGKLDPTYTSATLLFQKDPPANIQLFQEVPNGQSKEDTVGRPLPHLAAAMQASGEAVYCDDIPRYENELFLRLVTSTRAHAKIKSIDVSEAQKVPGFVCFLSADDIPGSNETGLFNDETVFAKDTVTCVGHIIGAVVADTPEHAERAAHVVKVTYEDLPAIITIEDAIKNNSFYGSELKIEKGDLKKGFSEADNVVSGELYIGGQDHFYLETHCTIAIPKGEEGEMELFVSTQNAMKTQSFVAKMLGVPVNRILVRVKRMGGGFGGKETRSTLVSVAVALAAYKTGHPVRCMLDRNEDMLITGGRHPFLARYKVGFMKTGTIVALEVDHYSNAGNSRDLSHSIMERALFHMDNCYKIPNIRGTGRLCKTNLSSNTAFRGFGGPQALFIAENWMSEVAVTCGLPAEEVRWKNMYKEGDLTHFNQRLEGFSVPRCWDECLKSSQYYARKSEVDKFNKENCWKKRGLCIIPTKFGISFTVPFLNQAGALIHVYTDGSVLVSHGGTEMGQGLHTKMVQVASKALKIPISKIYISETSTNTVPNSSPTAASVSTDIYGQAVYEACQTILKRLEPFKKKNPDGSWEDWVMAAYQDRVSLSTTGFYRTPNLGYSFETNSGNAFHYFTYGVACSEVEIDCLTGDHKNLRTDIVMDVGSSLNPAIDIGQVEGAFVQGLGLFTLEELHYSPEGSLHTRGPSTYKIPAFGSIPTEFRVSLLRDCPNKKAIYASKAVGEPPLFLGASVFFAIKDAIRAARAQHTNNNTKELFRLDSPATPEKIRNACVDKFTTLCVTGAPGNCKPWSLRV

Turning to `COc1ccc(F)c(-c2ncc(-n3cc(C(=O)O)cn3)cc2C#N)c1` [Compound 84, 1-[5-cyano-6-(2-fluoro-5-methoxyphenyl)pyridin-3-yl]-1H-pyrazole-4-carboxylic acid], the IC50 fell in the range of 5 to 10 nM. In the case of `Cc1ccc(F)c(-c2ncc(-n3cc(C(=O)O)cn3)cc2C#N)c1` [Compound 79, 1-[5-cyano-6-(2-fluoro-5-methylphenyl)pyridin-3-yl]-1H-pyrazole-4-carboxylic acid] it was at least 10 nM; in that of `COc1cccc(-c2cnc(-n3cc(C(=O)O)cn3)cc2C#N)c1` [Compound 13, 1-[4-cyano-5-(3-methoxyphenyl)pyridin-2-yl]-1H-pyrazole-4-carboxylic acid], 1 to 5 nM; in that of `N#Cc1cc(-n2cc(C(=O)O)cn2)ncc1-c1cccc([N+](=O)[O-])c1` [Compound 72, 1-[4-cyano-5-(3-nitrophenyl)pyridin-2-yl]-1H-pyrazole-4-carboxylic acid], at least 10 nM. In the case of `N#Cc1cc(-n2cc(C(=O)O)cn2)cnc1-c1cccc(F)c1F` [Compound 81, 1-[5-cyano-6-(2,3-difluorophenyl)pyridin-3-yl]-1H-pyrazole-4-carboxylic acid] it was at least 10 nM; in that of `N#Cc1cc(-n2cc(C(=O)O)cn2)ncc1-c1ccncc1` [Compound 62, 1-[4-cyano-5-(pyridin-4-yl)pyridin-2-yl]-1H-pyrazole-4-carboxylic acid], at least 10 nM; in that of `N#Cc1cc(-n2cc(C(=O)O)cn2)ncc1-c1ccc(F)cc1F` [Compound 32, 1-[4-cyano-5-(2,4-difluorophenyl)pyridin-2-yl]-1H-pyrazole-4-carboxylic acid], 1 to 5 nM. In the case of `CN(C)c1cccc(-c2cnc(-n3cc(C(=O)O)cn3)cc2C#N)c1` [Compound 67, 1-{4-cyano-5-[3-(dimethylamino)phenyl]pyridine-2-yl}-1H-pyrazole-4-carboxylic acid] it was 5 to 10 nM; in that of `Cc1ccccc1-c1cnc(-n2cc(C(=O)O)cn2)cc1C#N` [Compound 4, 1-[4-cyano-5-(2-methylphenyl)pyridin-2-yl]-1H-pyrazole-4-carboxylic acid], 5 to 10 nM; in that of `N#Cc1cc(-n2cc(C(=O)O)c(N)n2)ncc1-c1ccc(Cl)cc1` [Compound 100, 3-amino-1-[4-cyano-5-(4-chlorophenyl)pyridin-2-yl]-1H-pyrazole-4-carboxylic acid], 1 to 5 nM. Consider `Cc1cccc(-c2cnc(-n3cc(C(=O)O)cn3)cc2C#N)c1C` [Compound 38, 1-[4-cyano-5-(2,3-dimethylphenyl)pyridin-2-yl]-1H-pyrazole-4-carboxylic acid], for which the IC50 was 1 to 5 nM.

Take `N#Cc1cc(-n2cc(C(=O)O)cn2)ncc1-c1cccc(F)c1F` [Compound 20, 1-[4-cyano-5-(2,3-difluorophenyl)pyridin-2-yl]-1H-pyrazole-4-carboxylic acid]: the IC50 lay within 1 to 5 nM. Take `CC(C)Oc1ccc(-c2cnc(-n3cc(C(=O)O)cn3)cc2C#N)cc1` [Compound 52]: the IC50 was in the range of 1 to 5 nM. Consider `N#Cc1nc(-n2cc(C(=O)O)cn2)ccc1-c1ccc(F)cc1` [Compound 89], for which the IC50 is at least 10 nM.

As to “1-[5-(4-acetophenyl)-4-cyanopyridin-2-yl]-1H-pyrazole-4-carboxylic acid [Compound 71]”, the IC50 lay within 1 to 5 nM. As for `N#Cc1nc(-n2cc(C(=O)O)cn2)ccc1-c1ccccc1F` [Compound 86, 1-[6-cyano-5-(2-fluorophenyl)pyridin-2-yl]-1H-pyrazole-4-carboxylic acid], the figure is 5 to 10 nM; as for `N#Cc1cc(-n2cc(C(=O)O)cn2)ncc1-c1ccc(-c2ccccc2)cc1` [Compound 65, 1-[4-cyano-5-(4-phenylphenyl)pyridine-2-yl]-1H-pyrazole-4-carboxyic acid], 1 to 5 nM. Take `COc1cccc(F)c1-c1cnc(-n2cc(C(=O)O)cn2)cc1C#N` [Compound 18, 1-[4-cyano-5-(2-fluoro-6-methoxyphenyl)pyridin-2-yl]-1H-pyrazole-4-carboxylic acid]: the IC50 was in the range of 5 to 10 nM.

For the compound `N#Cc1cc(-n2cc(C(=O)O)cn2)ncc1-c1cc(F)ccc1F` [Compound 35, 1-[4-cyano-5-(2,5-difluorophenyl)pyridin-2-yl]-1H-pyrazole-4-carboxylic acid], the IC50 fell in the range of 1 to 5 nM. In the case of `Cc1ccc(-c2cnc(-n3cc(C(=O)O)c(N)n3)cc2C#N)c(F)c1` [Compound 103, 3-amino-1-[4-cyano-5-(2-fluoro-4-methylphenyl)pyridin-2-yl]-1H-pyrazole-4-carboxylic acid] it was 1 to 5 nM. Take `CC(C)(C)c1ccc(-c2cnc(-n3cc(C(=O)O)cn3)cc2C#N)cc1` [Compound 53, 1-[5-(4-tert-butylphenyl)-4-cyanopyridin-2-yl]-1H-pyrazole-4-carboxylic acid]: the IC50 lay in the range of 1 to 5 nM. As for `CCOc1cccc(-c2cnc(-n3cc(C(=O)O)cn3)cc2C#N)c1` [Compound 30, 1-[4-cyano-5-(3-ethoxyphenyl)pyridin-2-yl]-1H-pyrazole-4-carboxylic acid], the figure is 1 to 5 nM. In the case of `N#Cc1cc(-n2cc(C(=O)O)cn2)ncc1-c1ccc(N2CCOCC2)cc1` [Compound 64, 1-{4-cyano-5-[4-(morpholine-4-yl)phenyl]pyridine-2-yl}-1H-pyrazole-4-carboxylic acid] it was 1 to 5 nM; in that of `Cc1cccc(-c2cnc(-n3cc(C(=O)O)c(N)n3)cc2C#N)c1` [Compound 101, 3-amino-1-[4-cyano-5-(3-methylphenyl)pyridin-2-yl]-1H-pyrazole-4-carboxylic acid], 1 to 5 nM; in that of `N#Cc1cc(-n2cc(C(=O)O)cn2)ncc1-c1ccsc1` [Compound 21, 1-[4-cyano-5-(thiophen-3-yl)pyridin-2-yl]-1H-pyrazole-4-carboxylic acid], 1 to 5 nM.

Regarding `N#Cc1cc(-n2cc(C(=O)O)cn2)ncc1-c1cccc(Cl)c1` [Compound 12, 1-[4-cyano-5-(3-chlorophenyl)pyridin-2-yl]-1H-pyrazole-4-carboxylic acid], the IC50 was 5 to 10 nM. In the case of `COc1ccncc1-c1cnc(-n2cc(C(=O)O)cn2)cc1C#N` [Compound 58, 1-[4-cyano-5-(4-methoxypyridin-3-yl)pyridin-2-yl]-1H-pyrazole-4-carboxylic acid] it was at least 10 nM.

On to `Cc1ccc(-c2cnc(-n3cc(C(=O)O)cn3)cc2C#N)cc1F` [Compound 39, 1-[4-cyano-5-(3-fluoro-4-methylphenyl)pyridin-2-yl]-1H-pyrazole-4-carboxylic acid], for which the IC50 lay within 1 to 5 nM. In the case of `Cc1cc(F)ccc1-c1cnc(-n2cc(C(=O)O)cn2)cc1C#N` [Compound 49, 1-[4-cyano-5-(4-fluoro-2-methylphenyl)pyridin-2-yl]-1H-pyrazole-4-carboxylic acid] it was at least 10 nM. In the case of `N#Cc1cc(-n2cc(C(=O)O)cn2)ncc1-c1ccc(C(F)(F)F)cc1` [Compound 43, 1-{4-cyano-5-[4-(trifluoromethyl)phenyl]pyridin-2-yl}-1H-pyrazole-4-carboxylic acid] it was 1 to 5 nM; in that of `N#Cc1cc(-n2cc(C(=O)O)cn2)ncc1-c1ccccc1Cl` [Compound 6, 1-[4-cyano-5-(2-chlorophenyl)pyridin-2-yl]-1H-pyrazole-4-carboxylic acid], 1 to 5 nM. For the compound `CS(=O)(=O)Nc1ccc(-c2cnc(-n3cc(C(=O)O)cn3)cc2C#N)cc1` [Compound 69, 1-[4-cyano-5-(4-methanesulfonamidophenyl)pyridine-2-yl]-1H-pyrazole-4-carboxylic acid], the IC50 was in the range of 1 to 5 nM. For the compound `N#Cc1nc(-n2cc(C(=O)O)cn2)ccc1-c1ccc(F)cc1F` [Compound 90, 1-[6-cyano-5-(2,4-difluorophenyl)pyridin-2-yl]-1H-pyrazole-4-carboxylic acid], the IC50 was at least 10 nM. As for `Cc1ccc(F)c(-c2cnc(-n3cc(C(=O)O)cn3)cc2C#N)c1` [Compound 34, 1-[4-cyano-5-(2-fluoro-5-methylphenyl)pyridin-2-yl]-1H-pyrazole-4-carboxylic acid], the figure is 1 to 5 nM; as for `N#Cc1cc(-n2cc(C(=O)O)cn2)ncc1-c1csc2ccccc12` [Compound 61, 1-[5-(1-benzothiophen-3-yl)-4-cyanopyridin-2-yl]-1H-pyrazole-4-carboxylic acid], 1 to 5 nM. As for `N#Cc1cc(-n2cc(C(=O)O)cn2)ncc1-c1ccc(N)cc1` [Compound 68, 1-[5-(4-aminophenyl)-4-cyanopyridine-2-yl]-1H-pyrazole-4-carboxylic acid], the figure is 1 to 5 nM.

On to `COc1cc(F)ccc1-c1cnc(-n2cc(C(=O)O)cn2)cc1C#N` [Compound 50, 1-[4-cyano-5-(4-fluoro-2-methoxyphenyl)pyridin-2-yl]-1H-pyrazole-4-carboxylic acid], for which the IC50 was in the range of 1 to 5 nM. As for `CC(C)COc1cccc(-c2cnc(-n3cc(C(=O)O)cn3)cc2C#N)c1` [Compound 56], the figure is 5 to 10 nM.
